Test results published in patent US20140256790A1, “Methods for Identifying and Compounds Useful for Increasing the Functional Activity and Cell Surface Expression of CF-Associated Mutant Cystic Fibrosis Transmembrance Conductance Regulator” (priority 2008, published 2014).

How the values were obtained:
[1] = tested on: ΔF508 CFTR; experiment: Cell-surface expression of ΔF508 CFTR by cell-surface biotinylation and Western blot in CFBE41o-cells; assay type: cell-based, human
Protocol: This analysis allows a more quantitative measurement of the levels of restoration of cell-surface expressed ΔF508 CFTR, as well as the glycosylation status of the ΔF508 CFTR protein (Cheng et al., 1990). A preferred effect of a HIT would be increased cell-surface expression of ΔF508 CFTR, and especially “band C” (Cheng et al., 1990), fully glycosylated ΔF508 CFTR. The assay to measure cell surface expression of ΔF508-CFTR is performed in the following fashion: CFBE41o-cells are seeded in 60 mm cell culture dishes coated with 0.1 mg/mL bovine serum albumin (BSA), 0.03 mg/mL bovine collagen type 1 and 0.01 mg/mL human fibronectin. CFBE41o-cells are cultured in MEM containing 10% Fetal Bovine Serum, 2 mM glutamine, 100 IU/mL penicillin, 0.1 mg/mL streptomycine sulfate and 0.5 mg/mL hygromycin B at 37° C., 5% CO2 in a humidified chamber. One day after seeding, an aliquot of the Ad-siRNA is applied to each well. […] The supernatant is analyzed on Western blots (BioRad Criterion XT gels, 3-8% polyacrylamide #3450131). […] Quantification of the cell surface expression of ΔF508 CFTR was performed with Biorad Quantity One software.
Positive and negative controls for the biotinylation include incubation of cell culture at 27° C. for 48 hrs to correct misfolding and trafficking of ΔF508 CFTR, and omission of Ad-siRNAs respectively. No signal is detected when the biotinylation reagent was omitted. […]
Target sequence in this assay (P13569 other isoform, or with tags, fused parts or gaps DEL508-508): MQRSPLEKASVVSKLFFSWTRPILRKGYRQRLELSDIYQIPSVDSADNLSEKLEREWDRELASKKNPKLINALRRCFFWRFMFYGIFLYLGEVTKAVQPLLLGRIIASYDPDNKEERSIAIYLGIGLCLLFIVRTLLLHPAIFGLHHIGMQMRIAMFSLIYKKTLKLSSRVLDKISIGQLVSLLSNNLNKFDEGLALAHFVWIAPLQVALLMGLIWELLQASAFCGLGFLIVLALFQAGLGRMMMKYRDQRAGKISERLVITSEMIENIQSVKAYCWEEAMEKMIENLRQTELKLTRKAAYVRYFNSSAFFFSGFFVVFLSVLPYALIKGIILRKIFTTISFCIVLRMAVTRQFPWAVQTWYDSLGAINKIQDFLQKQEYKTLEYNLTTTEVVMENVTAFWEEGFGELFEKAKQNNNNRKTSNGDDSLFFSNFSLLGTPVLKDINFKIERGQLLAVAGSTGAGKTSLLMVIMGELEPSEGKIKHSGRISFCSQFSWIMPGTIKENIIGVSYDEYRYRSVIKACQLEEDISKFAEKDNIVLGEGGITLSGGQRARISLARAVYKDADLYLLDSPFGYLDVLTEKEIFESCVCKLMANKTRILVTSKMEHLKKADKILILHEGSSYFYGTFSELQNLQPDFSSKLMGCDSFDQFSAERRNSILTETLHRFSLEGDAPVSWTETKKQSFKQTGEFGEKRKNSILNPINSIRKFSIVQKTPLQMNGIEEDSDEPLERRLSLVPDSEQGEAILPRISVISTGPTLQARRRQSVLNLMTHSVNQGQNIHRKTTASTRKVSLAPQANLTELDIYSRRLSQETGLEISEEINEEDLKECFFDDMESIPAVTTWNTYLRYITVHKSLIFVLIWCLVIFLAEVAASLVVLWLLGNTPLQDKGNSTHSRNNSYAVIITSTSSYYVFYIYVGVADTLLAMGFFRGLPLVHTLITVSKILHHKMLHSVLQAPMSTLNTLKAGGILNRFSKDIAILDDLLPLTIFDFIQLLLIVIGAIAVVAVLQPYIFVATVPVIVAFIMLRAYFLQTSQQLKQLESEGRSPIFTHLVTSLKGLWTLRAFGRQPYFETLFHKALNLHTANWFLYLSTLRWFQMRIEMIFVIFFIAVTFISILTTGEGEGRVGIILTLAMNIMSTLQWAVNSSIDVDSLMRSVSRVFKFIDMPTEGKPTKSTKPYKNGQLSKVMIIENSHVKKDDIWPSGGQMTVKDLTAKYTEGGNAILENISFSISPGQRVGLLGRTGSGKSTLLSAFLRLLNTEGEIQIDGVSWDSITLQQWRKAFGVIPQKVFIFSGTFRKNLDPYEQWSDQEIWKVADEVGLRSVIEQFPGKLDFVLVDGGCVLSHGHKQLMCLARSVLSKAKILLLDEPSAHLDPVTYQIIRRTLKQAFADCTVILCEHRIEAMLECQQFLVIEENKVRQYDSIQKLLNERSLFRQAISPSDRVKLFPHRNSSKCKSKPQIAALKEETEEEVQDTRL

[2] = tested on: ΔF508 CFTR; experiment: Trans-epithelial chloride flux (short-circuit current, Ussing chamber) in CFTR ΔF508 homozygous primary bronchial epithelial cells; conditions: primary CF bronchial epithelial cell culture on filter support; Ad-siRNA knockdown; forskolin 10 μM, genistein 50 μM
Excerpt: A further validation of the correction of ΔF508 CFTR is the correction of trans-epithelial chloride transport in primary bronchial epithelial cell cultures from a CF patient, grown in a filter support. […] A standard drug addition protocol (Devor et al., 2000) can be used to detect transepithelial currents due to CFTR. Short-circuit current (Isc) across HBE primary cultures can be measured as described (Myerburg et al., 2006; Myerburg et al., 2008). Cells cultured on filter supports are mounted in modified Ussing chambers, and the cultures are continuously short-circuited with an automatic voltage clamp (Physiological Instruments, San Diego, Calif.). The basolateral bathing solution composition is: 120 mM NaCl, 25 mM NaHCO3, 3.3 mM KH2PO4, 0.8 mM K2HPO4, 1.2 mN MgCl2, 1.2 mM CaCl2, and 10 mM glucose. A basal-to-apical Cl gradient can be imposed by reducing the NaCl concentration of the apical bathing solution by replacing NaCl with equimolar Na-gluconate. The chambers are maintained at 37° C. and gassed continuously with a mixture of 95% O2-5% CO2 which fixed the pH at 7.4. Following a 5 min equilibration period, the baseline Isc is recorded. Sodium currents are blocked by addition of the epithelial sodium channel (ENaC) blocker, amiloride (10 μM), to the apical bath. […]

[3] = tested on: ΔF508-CFTR; assay type: cell-based, human; conditions: rescreen with repropagated Ad-siRNA; ΔF508-CFTR and YFP adenovirus; 10 microM forskolin and 100 microM genistein; threshold −2
Sequence of ΔF508-CFTR (P13569 other isoform, or with tags, fused parts or gaps DEL508-508): as above
Protocol: Accordingly, an assay to monitor CFTR-halide flux by using a reporter protein, halide-sensitive fluorescent protein YFP, is developed to measure the functional activity of CFTR. Cells expressing this reporter protein show enhanced fluorescence quenching of YFP by extracellular isomolar iodide solutions in the presence of activated CFTR. This is caused by the increased flux of iodide across the plasma membrane by CFTR. The fluorescence quenching is measured on a fluorescence plate reader.
Human lung epithelial cells are isolated from a ΔF508-CFTR patient, obtained after informed consent. These cells are stably transfected with ΔF508-CFTR expression plasmids and are named CFBE41o-cells (Gruenert et al., 2004). […]
CFBE41o-cells are transduced with the YFP fluorescent halide reporter adenoviral vector at a VPU of 2000 viral particles per cell, together with adenoviral vectors expressing ΔF508-CFTR, or as a positive control the wild-type CFTR. […] Plates are read in a fluorescent plate reader, equipped with injectors for the delivery of reagents to the well (Perkin-Elmer Envision 2102). Each well is read for 2 seconds at 485/530 nm (excitation/emission) prior to the addition of 110 microliter iodide-containing buffer (137 mM NaI, 2.7 mM KCl, 10 mM Na2HPO4, 1.76 mM KH2PO4 at pH 7.4). Fluorescent reading is continued for an additional 12 sec, sampling every 200 msec. […]

Substance: UGT3A2: Ad-siRNA (adenovirus-expressed shRNA) knocking down UGT3A2; KD sequences SEQ ID NO: 56, 57; SEQ 57 used in Table 6 (guide AACATGGTCCGAGTAGAAG; listed as Homo sapiens)
- CFTRΔF508 cell surface expression ([1]; CFBE41o- cell culture upon TARGET Ad-siRNA, relative to E-cadherin signal, without Ad-siRNAs set at 0, 27° C. for 48 hrs set at 1): 0.906
- C-band/B-band ratio ([1]; cell-surface ΔF508 CFTR, band C fully glycosylated / band B core glycosylated, CFBE41o-): 0.278
- Forskolin-Genistein induced chloride flux in CF primary epithelial cells compared to control cells (non-CF) [2]: 22.9%
- Forskolin-Genistein induced halide flux in CFBE41o- [3]: −5.485 fold stdev from the mean of the negative controls
